Results on 1 compound are retold here after patent US5627152A, “Method for increasing bodyweight” (Telluride Pharmaceutical Corporation, priority 1995, dated 1997).

Structures are written as SMILES.

Series [1] in a line: Oral glutathione capsules in healthy subjects: bodyweight and percent bodyfat by the caliper method. Type of series: in vivo, human. The settings on record: for percentage bodyfat at end of treatment: caliper method. On the procedure:
A healthy subject who wished to gain more weight in the form of lean muscle tissue, was treated for five weeks with one capsule containing 250 mg glutathione four times daily resulting in a total daily dosage of 1000 mg glutathione.
A healthy subject who wished to add bodyweight in the form of lean muscle, was treated for seven weeks with one capsule containing 500 mg of glutathione, four times per day. The totally daily dose was 2,000 mg of glutathione.
A […] healthy male subject who wished to add bodyweight in the form of lean muscle, was treated for seven weeks with two capsule of 500 mg of glutathione, three times per day. The totally daily dose was 3,000 mg of glutathione.
A healthy subject who wished to add bodyweight in the form of lean muscle was treated for six weeks with two capsules containing 500 mg of glutathione, twice daily. The totally daily dose was 2,000 mg of glutathione.

Series [2] concerns guinea pigs. The settings on record: high doses; cited from earlier work.

Consider `N[C@@H](CCC(=O)N[C@@H](CS)C(=O)NCC(=O)O)C(=O)O` [glutathione, -L-glutamyl-cysteinylglycine], for which the “percentage bodyfat at end of treatment” value was 18.6% in series [1] (Example 1: 1000 mg/day, five weeks, start 20.1%); 22.3% in series [1] (Example 2: 2,000 mg/day, seven weeks, start 24.9%); 15.1% in series [1] (Example 3: 3,000 mg/day, seven weeks, start 18.5%); 14.9% in series [1] (Example 4: 2,000 mg/day, six weeks, start 17.2%). Also, the “fat at end of treatment” value is recorded as 24 pounds in series [1] (Example 1: 1000 mg/day, five weeks, start 25 pounds); 55 pounds in series [1] (Example 2: 2,000 mg/day, seven weeks, start 55 pounds); 36 pounds in series [1] (Example 3: 3,000 mg/day, seven weeks, start 38 pounds); 36 pounds in series [1] (Example 4: 2,000 mg/day, six weeks, start 36 pounds). The “muscle, bone and connective tissue at end of treatment” value in series [1] (Example 1: 1000 mg/day, five weeks, start 100 pounds) came to 105 pounds; in series [1] (Example 2: 2,000 mg/day, seven weeks, start 165 pounds) it was 193 pounds; in series [1] (Example 3: 3,000 mg/day, seven weeks, start 165 pounds), 205 pounds; in series [1] (Example 4: 2,000 mg/day, six weeks, start 176 pounds), 203 pounds. Moreover, the “percent change in lean bodyweight (gain)” value in series [1] (Example 1: 1000 mg/day, five weeks, without a change in diet or exercise regimen) is 5%. For the same compound, the “bodyweight at end of treatment” value in series [1] (Example 1: healthy person, 250 mg capsule four times daily (1000 mg/day), five weeks, start 125 pounds) is recorded as 129 pounds; in series [1] (Example 2: healthy person, 500 mg capsule four times per day (2,000 mg/day), seven weeks, start 220 pounds), 248 pounds; in series [1] (Example 3: healthy person, two 500 mg capsules three times per day (3,000 mg/day), seven weeks, start 203 pounds), 241 pounds; in series [1] (Example 4: healthy person, two 500 mg capsules twice daily (2,000 mg/day), six weeks, start 212 pounds), 239 pounds. Moreover, the “percent change in lean body weight” value amounted to 17% in series [1] (Example 2: 2,000 mg/day, seven weeks, without a change in diet or exercise regimen); 24.2% in series [1] (Example 3: 3,000 mg/day, seven weeks, no change in diet or exercise regimen); 15.3% in series [1] (Example 4: 2,000 mg/day, six weeks, with a change in diet or exercise regimen (so in the source)). Moreover, the “effect on bodyweight (cachexia)” value in series [2] is on record as “promote cachexia”.
